Values after ≈ are worked out from the molar mass of the structure shown. Some results are limits rather than exact numbers.

The subject of series [1] is Escherichia coli. As to the kind of experiment: Antibacterial activity against Escherichia coli AB1157 measured after 16 hrs. As to conditions: AB1157, 16 h. In kind it is functional.
Series [2] relates to Staphylococcus aureus. The series is described as follows: Antibacterial activity against Staphylococcus aureus Newman measured after 16 hrs. In kind it is functional.
The subject of series [3] is Staphylococcus aureus. As to the kind of experiment: Antibacterial activity against aminoglycosides/tetracycline-resistant Staphylococcus aureus NRS-1 measured after 16 hrs. The series is classed as functional. The settings on record: NRS-1, 16 h.
Series [4] relates to Staphylococcus aureus. As to the kind of experiment: Antibacterial activity against erythromycin-resistant Staphylococcus aureus NRS-70 measured after 16 hrs. In kind it is functional. The settings on record: NRS-70, 16 h.
Series [5] concerns Staphylococcus aureus. The series is described as follows: Antibacterial activity against gentamicin-resistant Staphylococcus aureus NRS-108 measured after 16 hrs. In kind it is functional. The settings on record: NRS-108, 16 h.
The test system of series [6] is Staphylococcus aureus. As to the kind of experiment: Antibacterial activity against oxacillin/tetracycline-resistant Staphylococcus aureus NRS-100 measured after 16 hrs. The series is classed as functional. As to conditions: NRS-100, 16 h.
Series [7] deals with Staphylococcus aureus. As to the kind of experiment: Antibacterial activity against linezolid-resistant Staphylococcus aureus NRS-271 measured after 16 hrs. In kind it is functional. The settings on record: NRS-271, 16 h.
A short description of series [8]: Half life in Sprague-Dawley rat at 10 mg/kg, po administered as single dose via gavage. The series is classed as ADME, organism-based. The settings on record: in vivo.
A short description of series [9]: AUC (0 to infinity) in Sprague-Dawley rat at 10 mg/kg, po administered as single dose via gavage. The series is classed as ADME, organism-based. On the set-up: dose 10 mg/kg, route oral, time infinity. The settings on record: in vivo.
Series [10] can be described thus: Cmax in Sprague-Dawley rat at 10 mg/kg, po administered as single dose via gavage. The series is classed as ADME, organism-based. Further details: dose 10 mg/kg, route oral. The settings on record: in vivo.
Series [11] can be described thus: Tmax in Sprague-Dawley rat at 10 mg/kg, po administered as single dose via gavage. In kind it is ADME, organism-based. As to conditions: in vivo.
Series [12] is described as follows: Mean residence time in Sprague-Dawley rat at 10 mg/kg, po administered as single dose via gavage. In kind it is ADME, organism-based. As to conditions: in vivo.
Series [13] is described as follows: Apparent volume of distribution in Sprague-Dawley rat at 10 mg/kg, po administered as single dose via gavage. The settings on record: in vivo. In kind it is ADME, organism-based.
The nature of series [14]: Clearance in Sprague-Dawley rat at 10 mg/kg, po administered as single dose via gavage. In kind it is ADME, organism-based. As to conditions: in vivo.
Series [15] is described as follows: AUC (0 to t) in Sprague-Dawley rat at 10 mg/kg, po administered as single dose via gavage. The series is classed as ADME, organism-based. As to conditions: in vivo.

What is called MIC is the lowest concentration found to suppress growth. In the case of `CC(C)CNc1nccc(NCCNC2CCCc3c2[nH]c2ccc(Br)cc32)n1` (stereo not drawn), the MIC in [1] and in series [2] was 1.56 to 3.13 µg/mL (≈ 3.41 to 6.84 µM) in each case.
Take `CC(C)CNc1nccc(NCCCNC2CCCc3c2[nH]c2ccc(C(=O)O)cc32)n1` (stereo not drawn): the MIC in series [1] and in series [2] was > 50 µg/mL in each case.
For the compound `CC(C)CNc1nccc(NCCCNC2CCCc3c2[nH]c2ccc(OC(F)(F)F)cc32)n1` (stereo not drawn), the MIC in series [3], in [4], in [5], in series [6], in [7] and in series [1] was 1.56 to 3.13 µg/mL (≈ 3.27 to 6.57 µM) throughout. For the same compound, in series [2], the MIC was in the range of 1.56 to 3.13 µg/mL (≈ 3.27 to 6.57 µM).
Consider `CC(C)CNc1nccc(NCCCNC2CCCc3c2[nH]c2c(Br)cccc32)n1` (stereo not drawn), for which the MIC in [3] fell in the range of 3.13 to 6.25 µg/mL (≈ 6.64 to 13.3 µM); in series [4], 6.25 to 12.5 µg/mL (≈ 13.3 to 26.5 µM); in series [5], 6.25 to 12.5 µg/mL (≈ 13.3 to 26.5 µM); in [6], 6.25 to 12.5 µg/mL (≈ 13.3 to 26.5 µM); in [7] it was 6.25 to 12.5 µg/mL (≈ 13.3 to 26.5 µM); in series [1], 6.25 to 12.5 µg/mL (≈ 13.3 to 26.5 µM). This compound displayed an MIC in series [2] of 3.13 to 6.25 µg/mL (≈ 6.64 to 13.3 µM).
On to `CC(C)CNc1nccc(NCCCNC2CCCc3c2[nH]c2ccc(Cl)cc32)n1` (stereo not drawn), for which the MIC in [3] was in the range of 1.56 to 3.13 µg/mL (≈ 3.65 to 7.33 µM); in [4] it was 3.13 to 6.25 µg/mL (≈ 7.33 to 14.6 µM); in [5], 1.56 to 3.13 µg/mL (≈ 3.65 to 7.33 µM); in [6], 3.13 to 6.25 µg/mL (≈ 7.33 to 14.6 µM); in series [7], 1.56 to 3.13 µg/mL (≈ 3.65 to 7.33 µM); in series [1], 1.56 to 3.13 µg/mL (≈ 3.65 to 7.33 µM). In series [2], the MIC is 1.56 to 3.13 µg/mL (≈ 3.65 to 7.33 µM).
As for `CC(C)CNc1nccc(NCCCNC2CCCc3c2[nH]c2ccc(C(F)(F)F)cc32)n1` (stereo not drawn), the MIC in [3], in series [4], in series [5], in series [6], in series [7] and in series [1] was 1.56 to 3.13 µg/mL (≈ 3.39 to 6.8 µM) throughout. In addition, the MIC in [2] was 1.56 to 3.13 µg/mL (≈ 3.39 to 6.8 µM).
As to `COC(=O)c1ccc2[nH]c3c(c2c1)CCCC3NCCCNc1ccnc(NCC(C)C)n1` (stereo not drawn), the values for the MIC in series [1] and in series [2] were > 50 µg/mL and 25 to 50 µg/mL (≈ 55.5 to 111 µM), respectively.
`Cc1ccc2[nH]c3c(c2c1)CCCC3NCCc1ccccc1` (stereo not drawn): in series [2], the MIC lay in the range of 15 to 30.2 µg/mL (≈ 49.3 to 99.2 µM).
Take `COc1ccc2[nH]c3c(c2c1)CCCC3NCCCNc1ccnc(NCC(C)C)n1` (stereo not drawn): the results for the MIC in [1] and in series [2] were > 50 µg/mL and 25 to 50 µg/mL (≈ 59.2 to 118 µM), respectively.
As to `COc1cccc2c3c([nH]c12)C(NCCCNc1ccnc(NCC(C)C)n1)CCC3` (stereo not drawn), the MIC in series [1] and in series [2] was 12.5 to 25 µg/mL (≈ 29.6 to 59.2 µM) throughout.
In the case of `CC(C)CNc1nccc(NCCCCNC2CCCc3c2[nH]c2ccc(OC(F)(F)F)cc32)n1` (stereo not drawn), the MIC in series [1] lay in the range of 3.13 to 6.25 µg/mL (≈ 6.38 to 12.7 µM); in series [2] it was 1.56 to 3.13 µg/mL (≈ 3.18 to 6.38 µM).
In the case of `CC(C)CNc1nccc(NC2CCCc3c2[nH]c2ccc(OC(F)(F)F)cc32)n1` (stereo not drawn), the minimal inhibitory concentration (MIC) in [2] lay within 0.78 to 1.56 µg/mL (≈ 1.86 to 3.72 µM).
Take `CC(C)CNc1nccc(NCCCNC2CCCc3c2[nH]c2ccccc32)n1` (stereo not drawn): the MIC in [1] and in series [2] was 12.5 to 25 µg/mL (≈ 31.8 to 63.7 µM) throughout.
A word on the half-life: it is how long it takes for the measured level to halve. Low readings indicate fast loss, high ones slow loss. Broadly, the AUC(0-inf) is total exposure, with the tail of the curve extrapolated. A lower AUC(0-inf) goes with low exposure. For orientation: Cmax means the peak of the concentration-time curve. A word on the Tmax: it is the time from dosing to the highest level. In general, MRT refers to a mean duration of stay, worked out from the concentration-time curve. Broadly, the Vd/F is the apparent distribution volume after extravascular dosing. By CL/F is commonly meant clearance divided by bioavailability, as obtained after extravascular dosing. In general, AUC(0-t) refers to exposure summed from dosing to a finite time, without extrapolation to infinity. On to `CC(C)CNc1nccc(NCCCNC2CCCc3c2[nH]c2ccc(Br)cc32)n1` (stereo not drawn), for which the half-life in series [8] is 648 min. The compound also yielded an AUC(0-inf) in series [9] of 1560 ng·h/mL. Further, the MIC in [3] was 0.39 to 0.78 µg/mL (≈ 0.827 to 1.65 µM); in series [4] it was 0.78 to 1.56 µg/mL (≈ 1.65 to 3.31 µM); in [5], 0.78 to 1.56 µg/mL (≈ 1.65 to 3.31 µM); in series [6] it was 0.78 to 1.56 µg/mL (≈ 1.65 to 3.31 µM); in series [7], 0.78 to 1.56 µg/mL (≈ 1.65 to 3.31 µM); in series [1], 0.39 to 0.78 µg/mL (≈ 0.827 to 1.65 µM). The compound also displayed an MIC in [2] of 0.39 to 0.78 µg/mL (≈ 0.827 to 1.65 µM). This compound also showed a Cmax in series [10] of 86.3 ng/mL. Besides, in [11], the Tmax amounted to 3.6 h. The compound further displayed an MRT in [12] of 16.2 h. Moreover, the Vd/F in [13] was 103 L/kg. Moreover, the CL/F in [14] was 110 mL/min/kg. The AUC(0-t) in [15] amounted to 1200 ng·h/mL.
In series [2], `Cc1ccc2[nH]c3c(c2c1)CCCC3NCCCc1ccccc1` (stereo not drawn) came in with an MIC of 4 to 8 µg/mL (≈ 12.6 to 25.1 µM).
As for `CC(C)CNc1nccc(NCCCNC2CCCc3c2[nH]c2ccc(F)cc32)n1` (stereo not drawn), the MIC in [1] and in [2] was 12.5 to 25 µg/mL (≈ 30.4 to 60.9 µM) each time.
With `CC(C)CNc1nccc(NCCCCNC2CCCc3c2[nH]c2ccc(Br)cc32)n1` (stereo not drawn), the MIC in series [1] lay within 1.56 to 3.13 µg/mL (≈ 3.21 to 6.45 µM); in [2], 0.78 to 1.56 µg/mL (≈ 1.61 to 3.21 µM).
On the same counts, the results for `CC(C)CNc1nccc(NCCNC2CCCc3c2[nH]c2ccc(OC(F)(F)F)cc32)n1` (stereo not drawn) are 3.13 to 6.25 µg/mL (≈ 6.77 to 13.5 µM) and 3.13 to 6.25 µg/mL (≈ 6.77 to 13.5 µM).
Consider `Cc1ccc2[nH]c3c(c2c1)CCCC3NCCCCc1ccccc1` (stereo not drawn), for which the MIC fell in the range of 2.9 to 4.2 µg/mL (≈ 8.72 to 12.6 µM) in series [3]; 2.9 to 4.2 µg/mL (≈ 8.72 to 12.6 µM) in series [4]; 4.2 to 5.8 µg/mL (≈ 12.6 to 17.4 µM) in [5]; 2.9 to 4.2 µg/mL (≈ 8.72 to 12.6 µM) in series [6]; 4.2 to 5.8 µg/mL (≈ 12.6 to 17.4 µM) in [7]; 5 to 6.6 µg/mL (≈ 15 to 19.9 µM) in [2].
In [2], `Cc1ccc2[nH]c3c(c2c1)CCCC3NCc1ccccc1` (stereo not drawn) displayed an MIC of 14.5 to 20.9 µg/mL (≈ 49.9 to 72 µM).
As to `NC[C@H]1O[C@H](O[C@H]2[C@H](O)[C@@H](O[C@H]3O[C@H](CO)[C@@H](O)[C@H](N)[C@H]3O)[C@H](N)C[C@@H]2N)[C@H](O)[C@@H](O)[C@@H]1O` [KANAMYCIN], the MIC in series [3] is 50 to 75 µg/mL (≈ 103 to 155 µM); in series [4], 50 to 75 µg/mL (≈ 103 to 155 µM); in series [5] it was 50 to 75 µg/mL (≈ 103 to 155 µM); in series [1] it was > 50 µg/mL.
With `CN(C)[C@@H]1C(O)=C(C(N)=O)C(=O)[C@@]2(O)C(O)=C3C(=O)c4c(O)cccc4[C@@](C)(O)[C@H]3C[C@@H]12` [TETRACYCLINE], the MIC in [3] is > 12.5 µg/mL; in [4], < 1.56 µg/mL; in series [5], < 1.56 µg/mL; in [6] it was < 1.56 µg/mL; in series [7] it was < 1.56 µg/mL.
In series [1], `CN[C@H](CC(C)C)C(=O)N[C@H]1C(=O)N[C@@H](CC(N)=O)C(=O)N[C@H]2C(=O)N[C@H]3C(=O)N[C@H](C(=O)N[C@H](C(=O)O)c4cc(O)cc(O)c4-c4cc3ccc4O)[C@H](O)c3ccc(c(Cl)c3)Oc3cc2cc(c3O[C@@H]2O[C@H](CO)[C@@H](O)[C@H](O)[C@H]2O[C@H]2C[C@](C)(N)[C@H](O)[C@H](C)O2)Oc2ccc(cc2Cl)[C@H]1O` [VANCOMYCIN] showed an MIC of 6.25 to 12.5 µg/mL (≈ 4.31 to 8.63 µM).

The record behind these values is ChEMBL document CHEMBL4382226, “Design, synthesis and evaluation of hybrid of tetrahydrocarbazole with 2,4-diaminopyrimidine scaffold as antibacterial agents” (Eur J Med Chem, 2019).
